Laboratory results as given in PMC4434909, “In vitro properties of designed antimicrobial peptides that exhibit potent antipneumococcal activity and produces synergism in combination with penicillin” (Scientific Reports, 2015).
Entries after “also recorded” stand apart in the source; their conditions may differ. Read-outs that look alike come from different tables or passages of the source. Where no end group is shown, it is not given here.

What was measured:
K. pneumoniae = assay type: cell-based, Klebsiella pneumoniae; conditions: Gram-negative, clinical isolate; broth microdilution, CAMHB, peptides 1.96–250 μg/ml
Source text: All bacterial strains were obtained from Department of Medical Microbiology, University of Malaya. Clinical isolates were previously obtained from University of Malaya Medical Centre and maintained in the laboratory. Sheep blood agar was used for pneumococcal cultivation purpose. Nutrient agar was used for cultivating E. coli ATCC 25922, S. aureus ATCC 25923, and P. aeruginosa ATCC 15442, Acinetobacter baumanii ATCC 15308, and one clinical isolate for each MRSA, E. cloacae, Citrobacter spp., and K. pneumoniae. For antimicrobial testing, Mueller-Hinton agar (MHA) and cationically-adjusted MHB (CAMHB) were prepared according to the Clinical and Laboratory Standard Institute guidelines. MHA for S. pneumoniae was supplemented with 5% (v/v) defibrinated sheep blood and 5% laked horse blood for CAMHB. All bacterial cultures were stored in multiple vials in brain heart infusion broth supplemented with 10% (v/v) glycerol at −80°C to avoid repeated freeze-thawed cycles on the cells. All freeze-stocked strains were passaged twice prior to experimentation.
Procedures were performed to determine the MIC of peptides according to the CLSI guidelines[21] against 60 pneumococcal isolates which consisted of 20 isolates each for PRSP, PISP, and PSSP. Strains were grown for 18–24 hrs at 37°C under 5% CO2. Direct suspension of the colonies were made in CAMHB and adjusted to OD625 0.08–0.1 which corresponds to 1 ~ 2 × 10^8 CFU/ml followed by serial ten-fold dilutions to give 1 × 10^6 CFU/ml. Fifty microliters of bacterial suspension was then aliquoted to 96-well round bottom microtiter plates containing equal volume of serially diluted peptides to give final concentrations of peptides encompassing the range of 1.96–250 μg/ml. […] The plates were incubated for 18–24 hrs at 37°C under 5% CO2. MIC was read as the concentration of peptide producing complete inhibition on the visible growth of the test organism. Results were pooled from three independent experiments. MIC range was defined as the range of concentrations where the peptides produce detectable antimicrobial activity. Effective percentage (EP) was the proportion of pneumococcal isolates inhibited within the MIC range. Since the isolates tested were obtained prior to 2008 where major revision in antibiotic susceptibility breakpoints were introduced, thus the pneumococci were defined according to the PEN susceptibility breakpoint (prior 2008) which corresponds to the PEN (oral penicillin V) breakpoint of the revised criteria.
The broad spectrum antibacterial activity of the peptides against a panel of eight clinically important bacteria was also determined, this includes S. aureus ATCC 25923, E. coli ATCC 25922, P. aeruginosa ATCC 15442, A. baumanii ATCC 15308, and one clinical isolate each for MRSA, E. cloacae, Citrobacter spp., and K. pneumoniae.

PISP = assay type: cell-based, Streptococcus pneumoniae
Experimental: (§1) This assay was performed to evaluate the killing kinetics of peptides. One PRSP, PISP, and PSSP isolate were each grown and prepared to 5 × 10^6 CFU/ml. Each isolate in CAMHB was challenged with peptides at two times the respective MIC values. At the indicated time intervals (0, 30, 60, 120, 150, 180, 210, and 240 min; “0” indicate pretreatment), 10 μl of suspension was removed and immediately serially diluted in cold phosphate-buffered saline to arrest further reaction before spread-plated on MHA to obtain viable colony counts. The percentage cell recovered was calculated by dividing the surviving CFU of the treated cells over the surviving CFU of the untreated control cells at the respective time points. Results were pooled from three independent experiments and expressed as mean ± standard deviation (SD).

PRSP, PISP, and PSSP = assay type: cell-based, Streptococcus pneumoniae; conditions: for CFU recovered (viability), all three groups of pneumococci: 5 × 10^6 CFU/ml in CAMHB, plate count, relative to untreated control
Experimental: as §1

PRSP [1] = assay type: cell-based, Streptococcus pneumoniae
Experimental: as §1

PSSP = assay type: cell-based, Streptococcus pneumoniae
Experimental: as §1

PRSP [2] = test: Transmission electron microscopy of treated pneumococci; assay type: cell-based, Streptococcus pneumoniae; conditions: PRSP 5 × 10^10 CFU/ml, peptides 8 mg/ml, four hours 37°C 5% CO2
Experimental: An overnight culture of PRSP on sheep blood agar was passaged twice and directly suspended in CAMHB. As sample for TEM required high cell density of about 10^8 to 10^10 to be viewable, the bacteria was prepared to 5 × 10^10 CFU/ml and treated with supra-concentration of peptides at 8 mg/ml for four hours at 37°C under 5% CO2. Cells treated with only water was served as the untreated control. For TEM sample preparation, standard protocol provided by the Electron Microscopic Unit, Faculty of Medicine, University of Malaya was followed. The cells were washed twice with CAMHB before overnight fixation in 4% (v/v) glutaraldehyde, two times postfix washes with cacodylate buffer, incubate, two hours incubation with osmium tetroxide buffer (OsO4 1: 1 cacodylate), and washed twice with cacodylate buffer before overnight incubation in the same buffer. Next, the samples were washed twice with double distilled water, 10 min of uranyl acetate incubation, and washed twice with double distilled water before subjected to dehydration by gradual ethanol series: 35% for 10 min, 50% for 10 min, 70% for 10 min, 95% for 15 min, and three rounds of absolute (100%) ethanol for 15 min. Following this, samples were incubated with two rounds of propylene oxide for 15 min, propylene oxide 1:1 Epon for 1 hr, propylene oxide 1:3 Epon for 2 hrs, overnight incubation with Epon, embedded in Agar 100 resin at 37°C for five hours, and maintained in 60°C until viewing. Ultrathin sectioning were prepared on Reichert Ultramicrotome, copper grids 3.05 mm (300 square mesh) (Agar Scientific), and stained with ethanol-based uranyl acetate and lead citrate for 5 min. The prepared samples were viewed with Leo Libra 120 under standard operating conditions.

[3] = average of PRSP, PISP and PSSP, 30 min post treatment, 2× MIC
[4] = 30 min post treatment, 2× MIC, 5 × 10^6 CFU/ml in CAMHB, plate count, relative to untreated control

## GLFDIWKKWRWRR-NH2 [DM4]
K. pneumoniae
  MIC, K. pneumoniae: >250 µg/mL
PISP; 30 min post treatment, 2× MIC
  difference in killing kinetics over PEN, PISP: 57.8%
PRSP, PISP, and PSSP; [3]
  difference in killing kinetics over PEN, average: 42.4%
PRSP [1]; 30 min post treatment, 2× MIC
  difference in killing kinetics over PEN, PRSP: 39.0%
PSSP; 30 min post treatment, 2× MIC
  difference in killing kinetics over PEN, PSSP: 30.5%
PRSP [2]
  changes in pneumococcal cell morphology (TEM): Loss of cell wall fragments

## GLFDIWKKLRWRR-NH2 [DM5]
K. pneumoniae
  MIC, K. pneumoniae: 250 µg/mL
PISP; 2
  difference in killing kinetics over PEN, PISP: 58.5%
PRSP, PISP, and PSSP; 2
  difference in killing kinetics over PEN, average: 44.4%
PRSP [1]; 2
  difference in killing kinetics over PEN, PRSP: 38.1%
PSSP; 2
  difference in killing kinetics over PEN, PSSP: 36.5%
PRSP [2]
  changes in pneumococcal cell morphology (TEM): Loss of cell wall fragments; also recorded: formation of cytoplasmic-containing inclusion bodies

## GLFDIWAWWRWRR-NH2 [DM2]
K. pneumoniae
  MIC, K. pneumoniae: >250 µg/mL
PISP; 2
  difference in killing kinetics over PEN, PISP: 65.4%
PISP; [4]
  CFU recovered, PISP: 12.4%
PRSP, PISP, and PSSP; 2
  difference in killing kinetics over PEN, average: 61.3%
PRSP, PISP, and PSSP; 30 min post treatment, 2× MIC
  CFU recovered (viability), all three groups of pneumococci: < 6.0%
PRSP [1]; 2
  difference in killing kinetics over PEN, PRSP: 64.1%
PRSP [1]; [4]
  CFU recovered, PRSP: completely killed
PSSP; 2
  difference in killing kinetics over PEN, PSSP: 54.4%
PRSP [2]
  changes in pneumococcal cell morphology (TEM): filamentous and stacked at one pole of the cell

## GLFDKWAWWRWRR-NH2 [DM1]
K. pneumoniae
  MIC, K. pneumoniae: >250 µg/mL
PISP; 30 min post treatment, 2× MIC
  difference in killing kinetics over PEN, PISP: 54.2%
PRSP, PISP, and PSSP; [3]
  difference in killing kinetics over PEN, average: 48.5%
PRSP [1]; 30 min post treatment, 2× MIC
  difference in killing kinetics over PEN, PRSP: 52.9%
PSSP; 30 min post treatment, 2× MIC
  difference in killing kinetics over PEN, PSSP: 38.4%
PRSP [2]
  changes in pneumococcal cell morphology (TEM): formation of cytoplasmic-containing inclusion bodies

## GLFDIWKWWRWRR-NH2 [DM3]
K. pneumoniae
  MIC, K. pneumoniae: 62.5 µg/mL
PISP; 2
  difference in killing kinetics over PEN, PISP: 76.0%
PRSP, PISP, and PSSP; 2
  difference in killing kinetics over PEN, average: 64.6%
PRSP, PISP, and PSSP; 30 min post treatment, 2× MIC
  CFU recovered (viability), all three groups of pneumococci: < 6.0%
PRSP [1]; 2
  difference in killing kinetics over PEN, PRSP: 60.0%
PSSP; 2
  difference in killing kinetics over PEN, PSSP: 57.7%
PRSP [2]
  changes in pneumococcal cell morphology (TEM): formation of cytoplasmic-containing inclusion bodies
